Results published in patent US11786540B2, “Gliflozins and a method for their delivery during resuscitation from cardiac arrest to improve survival outcomes” (Rosalind Franklin University of Medicine and Science, priority 2020, dated 2023).

Legend:
[1] = system: swine model of cardiac arrest; conditions: given immediately before starting CPR; cited from earlier work
[2] = system: open-chest swine model of VF; experiment: open-chest swine model of electrically-induced VF and simulated CPR using extracorporeal circulation; type: in vivo
Description: The studies were conducted in an open-chest swine model of electrically-induced VF and simulated CPR with controlled coronary blood flow (CBF) using extracorporeal circulation (ECC).^13,14 With a high degree of precision, the ECC model allowed subjecting the myocardium to low-flow reperfusion (as CPR does) after a period of ischemia during untreated VF (as it typically occurs in patients). The model reproduces adverse myocardial effects observed during CPR including increased myocardial wall thickness that is consistently ameliorated by NHE-1 inhibition. In addition, the model also reproduces post-resuscitation myocardial dysfunction which is also ameliorated by NHE-1 inhibition. In addition, the open-chest model allows for direct assessment of the myocardium via a micro-tip pressure transducer in the left ventricle to measure left ventricular pressure with high fidelity; a flow probe around the left anterior descending coronary artery to measure coronary blood flow as a surrogate of total myocardial blood flow; ultrasonic piezoelectric crystals to continuously measure the diameter (short-axis) and wall thickness of the left ventricle at the level of the mitral valve; and echocardiography to measure left ventricle volumes and wall thickness through a 4-chamber and 2-chamber views of the heart.
Therefore, we chose an EMPA dose expected to achieve a blood concentration of 1 μM after initial blood volume distribution in our swine model of VF and resuscitation by ECC. For this purpose, a stock solution was first prepared by dissolving 90.2 mg of EMPA (Sigma, St. Louis, Mo., MW 450.92) in 10 ml of 100% DMSO to obtain a 20 mM solution. This stock solution was diluted in saline to 200 μM. Given an estimated blood volume of 2.5 L for a 40-kg pig, 2.5 μmoles (i.e., 12.5 ml of the 200 μM solution) were given in bolus dose to attain the target blood concentration of 1 μM EMPA after initial blood volume distribution. […] Control pigs received 12.5 ml of 0.9% NaCl.
The bolus of EMPA or control solution was given at minute 9 of untreated VF through the venous port of the extracorporeal circuit. VF was maintained untreated for 10 minutes. ECC was then initiated and maintained for an additional 16 minutes. The ECC flow was titrated with the aid of a closed-loop system to generate and maintain a CBF of 25% of the baseline CBF, measured in the left anterior descending coronary artery.^20
Six male domestic pigs (38.2 to 43.3 kg) were fasted overnight, sedated with ketamine hydrochloride (30 mg/kg intramuscular), and anesthetized with propofol (2 mg/kg through an ear vein). The trachea was intubated with a size-7.5 orotracheal tube and positive pressure ventilation initiated with 50% oxygen using a volume-controlled ventilator (840 Ventilator System, Nellcor Puritan Bennett, Boulder, Colo.) set to deliver 10 mL/kg at a peak flow of 60 L/min with an FiO2 of 0.5. The respiratory rate was adjusted to attain an end-tidal PCO2 (PETCO2) between 38 and 42 mmHg. Anesthesia was maintained using isoflurane (1.75%-2.75%). Rectal temperature was maintained between 37.5 and 38.5° C. with a servo-controlled water-circulated blanket (Blanketrol II, Cincinnati Sub-Zero, Cincinnati, Ohio). The ECG signal was obtained during spontaneous circulation through leads placed on the right forelimb, left forelimb, and left hindlimb. During VF, the ECG signal was obtained through pads from a biphasic waveform defibrillator (E series; ZOLL Medical Corporation, Chelmsford, Mass.) placed on the shaved sides of the chest along the midaxillary line.
A 7 F fluid-filled catheter was advanced from the right femoral artery into the descending thoracic aorta to measure aortic pressure. A 7 F thermodilution balloon-tipped catheter was advanced through the right external jugular vein into the pulmonary artery to measure cardiac output, right atrial pressure, pulmonary artery pressure, and pulmonary artery occlusive pressure (Swan-Ganz, Edwards Lifesciences, Irvine, Calif.). […]

[3] = system: closed-chest swine model of VF; type: in vivo
Description: We used a swine model of VF and conventional closed-chest resuscitation with survival up to 240 minutes. We conducted 16 experiments in which 8 were randomized to receive EMPA and 8 to vehicle control given intravenously immediately before starting CPR.
Domestic pigs (35.2 to 39.6 kg) were sedated, anesthetized, intubated, and started on mechanical ventilation as for the experiments in the open-chest model. For blood sampling and measuring aortic pressures, a 6F dual lumen pressure monitoring catheter (Langston, Vascular Solutions) was advanced through the right femoral artery past the bifurcation and into the descending thoracic aorta. For measuring left ventricular pressures, a 7F fluid-filled pigtail catheter (Langston, Vascular Solutions) was advanced through the surgically exposed right carotid artery and into the left ventricle. For blood sampling and for measuring core temperature, cardiac output by thermodilution technique, and pressures in the right atrium and pulmonary artery, a balloon-tipped pulmonary artery catheter (Swan-Ganz, Edwards Lifesciences, Irvine, Calif.) was advanced through the right external jugular vein and into the pulmonary artery. For induction of VF, a 5F pacing electrode was advanced through the right internal jugular vein into the right ventricle (FIG. 4).
VF was induced by delivering an alternating current (1-10 mA) to the right ventricular endocardium and left untreated without ventilation for 10 minutes. At the end of untreated VF, chest compressions were started using a mechanical compressor (Michigan Thumper Model 1007, Grand Rapids, Mich.) set to compress the chest at a rate of 100 per minute with its depth titrated attempting to generate an aortic diastolic pressure of at least 25 mmHg but without exceeding a maximum compression depth of 5 cm. Ventilation with 100% oxygen was delivered using a 350-ml self-inflating pediatric bag (Lifesaver Resuscitation Bags; Teleflex Medical, N.C.). Compressions and ventilations were delivered sequentially as recommended when the airway is un-protected. Accordingly, 30 chest compressions were delivered in 18 seconds followed by 2 breaths during a 6 second compression pause. Electrical shocks were delivered through the chest pads using a biphasic waveform defibrillator (R series Zoll Corp.) with the energy set at 200-J. Shocks were delivered guided by the likelihood of successful resuscitation using an algorithm developed by us based on real-time monitoring of the VF waveform in the frequency domain known as amplitude spectral area (AMSA).^24 Epinephrine (1 mg-bolus dose; 1 ml) was delivered through the pulmonary artery catheter into the right atrium and the line flushed with 10 ml of 0.9% NaCl. The timing of epinephrine delivery was based on an AMSA advisory criterion avoiding delivery if AMSA predicted a high likelihood of shock success within the ensuing 120 seconds, with a minimum interval between doses of 240 seconds. The purpose of AMSA advisory criteria was to minimize administration of epinephrine—given its known adverse post-resuscitation effects—if not required for successful resuscitation.^25,26 Animals that achieved ROSC received 0.9% NaCl (30 ml/kg) at the maximum pump rate (999 ml/h) and were monitored for up to 240 minutes, euthanizing those that survived by delivering a right atrial bolus of KCl (150 mg/kg).
For these experiments we used a higher EMPA dose corresponding to 0.5 mg/kg.
For this purpose, a stock solution was prepared by dissolving 90.2 mg of EMPA (Sigma, St. Louis, Mo., MW 450.92) in 8 ml of 100% DMSO to obtain a […] solution. This stock solution was diluted in saline to 5 mM. Given an estimated blood volume of 2.5 L for a 40-kg pig, 44.64 μmoles (i.e., 8.9 ml of the 5 mM solution) of EMPA was given in bolus dose into the right atrium immediately before starting CPR to attain the target blood concentration of 17.8 μM (0.8026 mg/di) after initial blood volume distribution. […]

[4] = system: patients with type 2 diabetes; conditions: cited from earlier work
isolated mice hearts = conditions: cited from earlier work
[5] = system: obese rats with diastolic dysfunction; conditions: cited from earlier work
[6] = 25 mg oral dose in humans; cited from earlier work
isolated cardiomyocytes = conditions: cited from earlier work
CaMKII = conditions: 24 hours exposure; cited from earlier work
[7] = dose 0.5 mg/kg; cited from earlier work
ischemia-reperfusion = conditions: rat and swine models of ischemia-reperfusion; cited from earlier work
[8] = system: coronary occlusion and reperfusion; conditions: rat, in vivo; cited from earlier work
[9] = system: coronary occlusion and reperfusion; conditions: oral, 24 hours and 2 hours before coronary occlusion; cited from earlier work
[10] = vs control, statistically significant

CC(C)c1ccc(C(=O)NC(=N)N)cc1S(C)(=O)=O [cariporide]
myocardial wall thickening and reduction in left ventricular cavity size [1]: significant amelioration

OC[C@H]1O[C@@H](c2ccc(Cl)c(Cc3ccc(O[C@H]4CCOC4)cc3)c2)[C@H](O)[C@@H](O)[C@@H]1O [EMPA, Empagliflozin]
myocardial changes during the resuscitation effort ([2]; between EMPA and control groups): no myocardial differences
increases in Tau, the relaxation time constant, post-resuscitation ([2]; developed in control animals): not observed
progressive left ventricular wall thickening post-resuscitation ([2]; developed in control animals): not observed
cumulative energy required to terminate VF ([2]; same in both groups): 60 J
NE doses received post-resuscitation ([2]; vs control): lower
PETCO2 post-resuscitation ([2]; vs control): markedly higher
heart rate post-resuscitation ([2]; vs control, n=3 per group, not statistically significant): lower
MAP post-resuscitation ([2]; vs control, n=3 per group, statistically significant): statistically significant higher
coronary vascular resistance post-resuscitation ([2]; vs control, did not achieve statistical significance): slightly lower
LAD blood flow post-resuscitation [2, 10]: substantially higher
cardiac index post-resuscitation [2, 10]: markedly higher
left ventricular stroke work index post-resuscitation [2, 10]: higher
stroke volume index post-resuscitation [2, 10]: higher
end-tidal PCO2 during CPR ([3]; 0.5 mg/kg, n=8, comparator 29±7): 36±7 mmHg
left ventricular stroke work index post-resuscitation ([3]; vs comparator): higher
mean arterial pressure post-resuscitation ([3]; vs comparator): lower
stroke volume index post-resuscitation ([3]; vs comparator): higher
systemic vascular resistance post-resuscitation ([3]; vs comparator): lower
cardiac index post-resuscitation ([3]; vs comparator, average of 120, 180, 240 min): higher
pulmonary vascular resistance post-resuscitation ([3]; vs comparator, not shown): lower
reduction in the relative risk of cardiovascular death [4]: 38%
risk reduction of hospitalization for heart failure [4]: 35%
onset of myocardial contracture during ischemia (isolated mice hearts; EMPA 1 μM, 18 minutes prior to ischemia and 25 minutes of ischemia): delayed
infarct size (isolated mice hearts; global ischemia and reperfusion): reduced
isovolumic relaxation time ([5]; after 30 minutes): improved
blood concentration ([5]; single EMPA injection, obese rats): 8.68 µM
blood concentration [6]: 0.69 µM
cytosolic sodium and cytosolic calcium (isolated cardiomyocytes): reductions
CaMKII activity (CaMKII): reduction
adverse effect [7]: had not shown adverse effect

Cc1ccc([C@@H]2O[C@H](CO)[C@@H](O)[C@H](O)[C@H]2O)cc1Cc1ccc(-c2ccc(F)cc2)s1 [canagliflozin]
reductions in infarct size (ischemia-reperfusion): up to 60%
infarct size [8]: reduced
systolic and diastolic dysfunction [8]: ameliorated
stroke volume and cardiac output after reperfusion [9]: better
